{"source": "patent US6639058B2", "about": "“Method of dissolving preformed β-amyloid peptide fibrils in vitro by poly-lysine” (priority 2001, dated 2003)", "key": {"[1]": {"molecular_target": "T1, preformed βA25-35 fibrils (Homo sapiens, UniProt P05067)", "T1 construct": "0.5 mg/ml for βA25-35 prepared in water or in PBS", "assay": "Electron microscopy analysis of the ability to dissolve preformed βA fibrils in vitro (βA25-35)", "assay_type": "biochemical", "details": "for ability to dissolve preformed βA25-35 fibrils: 10 μl tested compound mixed with 10 μl preformed fibrils, negative-staining electron microscopy immediately performed, Poly-L-Lysine 25 mg/ml, Polyethylene glycol 10 mg/ml, L-Lysine 1 M", "method": "(§1) Aliquots of βA at a concentration of 1.5 mg/ml for both βA1-40 and βA1-42 and 0.5 mg/ml for βA25-35 prepared in water or in PBS, were incubated for 5 days at 37° C. At the end of the incubation period, 10 μl of βA solution were mixed with 10 μl of water for negative-staining electron microscopy analysis.\n(§2) All compounds used to test the ability to dissolve preformed βA fibrils in vitro: Poly-L-Lysine, Polyethylene glycol and L-Lysine, were prepared in water and at a concentration of 25 mg/ml, 10 mg/ml and 1 M respectively. Then, 10 μl of tested compound were mixed with 10 μl of water for negative-staining electron microscopy analysis.\n(§3) In order to evaluate the ability of compounds to dissolve preformed βA fibrils in vitro, 10 μl of tested compound were mixed with 10 μl of preformed βA fibrils and the negative-staining electron microscopy analysis was immediately performed.\n(§4) Samples of tested compound, βA with or without tested compound were placed on carbon formar-coated 200-mesh nickel grids. The grids were stained for 5 minutes with 1% phosphotungstic acid and visualized on a Philips EM 401 electron microscope at 80 kV."}, "preformed βA1-40 fibrils": {"molecular_target": "T2, preformed βA1-40 fibrils (Homo sapiens, UniProt P05067)", "T2 construct": "1.5 mg/ml for both βA1-40 and βA1-42", "T2 sequence (P05067 672-711)": "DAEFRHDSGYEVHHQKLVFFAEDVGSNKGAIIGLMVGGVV", "assay": "Electron microscopy analysis of the ability to dissolve preformed βA fibrils in vitro (βA1-40)", "assay_type": "biochemical", "details": "data not shown", "method": "as §1, §2, §3, §4"}}, "data": [{"molecule": "Poly-L-Lysine, hydrobomide", "values": [{"measurement": "ability to dissolve preformed βA25-35 fibrils", "setting": "[1]", "value": "completely dissolved"}, {"measurement": "speed of efficiency in dissolving preformed βA fibrils", "setting": "[1]; in vitro, electron microscopy immediately after mixing", "value": "instantaneous"}, {"measurement": "potential to dissolve preformed βA1-40 fibrils", "setting": "preformed βA1-40 fibrils", "value": "also observed"}]}, {"molecule": "Cl.NCCCC[C@H](N)C(=O)O", "note": "[L-Lysine, L-Lysine, monohydrochloride, reference compound]", "values": [{"measurement": "ability to dissolve preformed βA25-35 fibrils", "setting": "[1]", "value": "not effective"}]}]}
